Experimental data reported in US20250320203A1, “4-(3H-PYRAZOLO[4,3-F]QUINOLIN-7-YL)-N-(2-(DIMETHYLAMINO)ETHYL)BENZAMIDE- OR HYDROXAMIC ACID COMPOUNDS, COMPOSITIONS, AND METHODS OF USE” (Purdue Research Foundation, priority 2022, published 2025).

Legend:
haspin = target: T1, haspin (Homo sapiens, UniProt Q8TF76); test: ADP Glo Kinase Assay, haspin, 50 nM inhibitor; assay type: biochemical; details: 50 nM inhibitor conc.; means of triplicates; read-out: Percent Inhibition (%) Haspin
T1 sequence (Q8TF76 1-798): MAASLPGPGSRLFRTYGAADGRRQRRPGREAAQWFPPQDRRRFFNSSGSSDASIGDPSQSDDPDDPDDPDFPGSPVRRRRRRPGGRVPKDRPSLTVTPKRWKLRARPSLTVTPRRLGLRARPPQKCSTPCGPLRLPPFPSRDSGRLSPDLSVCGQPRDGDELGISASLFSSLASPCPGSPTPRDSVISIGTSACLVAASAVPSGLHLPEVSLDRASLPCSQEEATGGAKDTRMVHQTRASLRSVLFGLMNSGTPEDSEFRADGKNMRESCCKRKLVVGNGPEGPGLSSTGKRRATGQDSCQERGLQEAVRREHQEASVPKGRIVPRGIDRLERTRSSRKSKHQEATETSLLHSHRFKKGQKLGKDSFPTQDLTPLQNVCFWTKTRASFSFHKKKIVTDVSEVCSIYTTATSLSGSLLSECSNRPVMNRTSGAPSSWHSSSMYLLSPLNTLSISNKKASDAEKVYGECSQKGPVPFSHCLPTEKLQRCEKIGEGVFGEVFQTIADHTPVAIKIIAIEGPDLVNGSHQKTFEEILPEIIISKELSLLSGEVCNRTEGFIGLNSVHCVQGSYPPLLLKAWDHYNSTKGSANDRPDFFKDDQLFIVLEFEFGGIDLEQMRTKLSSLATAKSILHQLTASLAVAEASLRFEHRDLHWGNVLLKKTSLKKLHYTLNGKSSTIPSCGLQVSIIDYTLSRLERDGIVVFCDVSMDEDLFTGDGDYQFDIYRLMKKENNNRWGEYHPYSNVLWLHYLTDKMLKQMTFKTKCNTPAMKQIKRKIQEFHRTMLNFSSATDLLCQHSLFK
Method: (§1) With the amide kinase inhibitor library established, kinase inhibition and AML cell line (Molm-14, which harbors FLT3-ITD) growth inhibition were analyzed (Table 1). More specifically, Haspin and FLT3 inhibition were evaluated in-house via ADP Glo Kinase Assay (Promega, Madison, WI). […] Values reported are means of triplicates.
(§2) Briefly, the ADP-Glo Kinase Assay Kit was used to determine inhibition of haspin. Kinase Buffer (SignalChem Cat #K01-09; 25 mM MOPS, pH 7.2, 12.5 mM β-glycerol-phosphate, 25 mM MgCl2, 2 mM EDTA) was supplemented with dithiothreitol (DTT) (0.2 mM) and bovine serum albumin (BSA) (40 μg/mL) immediately prior to use. Reaction volumes of 5 μL containing 9 ng/μL kinase, 10 μM ATP, 50 nM inhibitor, and the appropriate peptide substrate (20 μM) were incubated for 3 hours, and then quenched with an equal volume (5 μL) of GLO reagent. After 40 minutes, 10 μL DET reagent was added and incubated for 1 hour before visualization on a Cytation™ 5 Cell Imaging Multi-Mode Reader (BioTek).

FLT3 = target: T2, FLT3 (Homo sapiens, UniProt P36888); test: ADP Glo Kinase Assay, FLT3, 50 nM inhibitor; assay type: biochemical; details: 50 nM inhibitor conc.; means of triplicates; read-out: Percent Inhibition (%) FLT3
T2 sequence (P36888 27-993): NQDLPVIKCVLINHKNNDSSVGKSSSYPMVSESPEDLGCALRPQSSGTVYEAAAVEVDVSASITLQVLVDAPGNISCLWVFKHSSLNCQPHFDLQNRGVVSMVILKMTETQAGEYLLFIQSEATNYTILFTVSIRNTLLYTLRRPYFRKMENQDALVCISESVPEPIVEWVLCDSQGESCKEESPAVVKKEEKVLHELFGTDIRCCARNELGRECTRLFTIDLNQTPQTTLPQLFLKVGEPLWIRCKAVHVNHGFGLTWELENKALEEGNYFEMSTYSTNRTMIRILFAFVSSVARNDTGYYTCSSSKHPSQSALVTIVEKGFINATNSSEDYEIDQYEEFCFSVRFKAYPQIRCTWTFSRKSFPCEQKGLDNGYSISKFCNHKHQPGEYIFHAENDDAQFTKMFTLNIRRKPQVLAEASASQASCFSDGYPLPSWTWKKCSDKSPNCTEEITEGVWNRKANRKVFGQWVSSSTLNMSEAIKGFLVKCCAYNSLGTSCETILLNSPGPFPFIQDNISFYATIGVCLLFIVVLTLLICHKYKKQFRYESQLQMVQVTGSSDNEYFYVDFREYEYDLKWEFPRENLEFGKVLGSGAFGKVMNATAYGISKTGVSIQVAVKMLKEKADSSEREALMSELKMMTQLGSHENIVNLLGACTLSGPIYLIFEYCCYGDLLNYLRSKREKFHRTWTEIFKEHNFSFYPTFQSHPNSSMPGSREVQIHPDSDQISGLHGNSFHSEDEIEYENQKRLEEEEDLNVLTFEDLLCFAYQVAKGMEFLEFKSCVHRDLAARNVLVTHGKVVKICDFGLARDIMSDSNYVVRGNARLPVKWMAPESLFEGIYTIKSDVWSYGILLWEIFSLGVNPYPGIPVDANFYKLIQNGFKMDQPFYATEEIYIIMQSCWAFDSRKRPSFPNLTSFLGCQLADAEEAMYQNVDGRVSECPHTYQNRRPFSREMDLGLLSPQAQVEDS
Method: as §1, §2

Molm-14 cells (FLT3-ITD) = test: AML cell line growth inhibition (CellTiter-Blue), 50 nM; assay type: cell-based; details: Homo sapiens, 50 nM inhibitor conc., means of triplicates, read-out: Percent Inhibition (%) Molm-14 growth
Method: as §1
More specifically, cells were cultured to confluence in RPMI medium supplemented with 10% fetal bovine serum and 1× Penicillin-Streptomycin (Gibco™). Cells were plated at 5,000 cells/well in 96 well plates. After 24-hour incubation at 37° C. in a 5% CO2 incubator, compounds diluted in the same media were added to the indicated final concentration and allowed to incubate at 37° C. in a 5% CO2 incubator for 72 hours. Viability was determined using CellTiter-Blue® Cell Viability Assay (Promega, Madison, WI) with absorbance readings at 570 nm performed on a Cytation™ 5 Cell Imaging Multi-Mode Reader (BioTek) 3 hours after addition. Appropriate vehicle and cell-free controls were included. GI50 readings were confirmed by two scientists on two separate days.

[1] = tested on: histone H3 (Thr3) phosphorylation by haspin; test: Western blot, histone H3 (Thr3) phosphorylation by haspin in Molm-14 cells; assay type: cell-based, human; details: 24 hours, HSK205 5, 20 or 100 nM, gilteritinib 100 nM
Method: Whether Compound HSK205 does indeed inhibit haspin in AML cells was then evaluated, and immunoblotting was performed to confirm inhibition of histone H3 (Thr3)phosphorylation by haspin (FIG. 13A). […] The samples were subsequently analyzed for the phosphorylation of histone H3 (Thr3).
Acute myeloid leukemia cells (Molm-14) were incubated with various concentrations of compound as specified. Cells were collected and lysed, and protein concentrations were quantified relative to BSA standards. After protein denaturation, proteins were separated via SDS-PAGE electrophoresis and transferred to NC membranes. After blocking, overnight incubation with specific primary antibodies, and room temperature incubation for 2 hours with peroxidase-conjugated secondary antibodies, peroxidase activity was detected with SuperSignal West Pico reagents (Thermo Scientific) using a CCD camera LAS-4000 (Fujifilm). Bands were normalized using housekeeping gene, Actin. Values reported represent the means of triplicates and error bars represent SD. All specific antibodies were purchased from Cell Signaling.

inhibition at 0.05 µM (haspin): 11%
inhibition at 0.05 µM (FLT3): 93%
SMILES: CCc1nc(C(N)=O)c(Nc2ccc(N3CCC(N4CCN(C)CC4)CC3)c(OC)c2)nc1NC1CCOCC1 [gilteritinib, reference compound]
inhibition at 0.05 µM (Molm-14 cells (FLT3-ITD)): 87%
phosphorylation of histone H3 (Thr3) [1]: did not display haspin inhibition
